According to patent publication US20120245224A1, “CANNABINOIDS FOR USE IN THE TREATMENT OF NEUROPATHIC PAIN” (GW Pharma Limited, priority 2006, published 2012):

Experiments:
[1] = test system: thermal hyperalgesia after chronic constriction injury (CCI) to the sciatic nerve; experiment: Acute administration, thermal hyperalgesia (Hargreaves plantar test) in CCI rats; assay type: in vivo, rat; conditions: for Withdrawal latency: CCI rats 14 days after injury, THC 0.42 mg/kg, CBD 10 mg/kg; for mean pain relieving effect of the test article when compared to the vehicle as a percentage, Thermal Hyperalgesia: mean over the test period
Method: (§1) Painful neuropathy was induced in male Wistar rats weighing 200-220 g (Harlan, Italy). Animals were anaesthetized with sodium pentobarbital (60 mg kg^−1 i.p.) and submitted to a surgical procedure to induce neuropathic pain according to Bennet & Xie (1988).
(§2) This procedure was a chronic constriction injury (CCI) to the sciatic nerve, this was achieved by exposing the common sciatic nerve at the level of the mid thigh and, proximal to the sciatic nerves trifurcation, four ligatures were loosely tied around it with about 1 mm spacing so that the epineural circulation was preserved.
(§3) Sham animals (sciatic exposure without ligation) were used as controls.
(§4) The compounds tested were a cannabinoid-containing plant extract which contained a ratio of CBD:THC of approximately 24:1. From Table 1 this could also be described as a “CBD-containing plant extract”. The extract comprised CBD at a concentration of 10 mg/kg and THC at a concentration of 0.42 mg/kg. Pure cannabinoids CBD (at a concentration of 10 mg/kg) and THC (at a concentration of 0.42 mg/kg) were also used as test articles for comparison to the cannabinoid-containing plant extract.
(§5) The test compounds were dissolved in a 1:1:18 mixture of ethanol, cremophor and saline.
(§6) The acute administration of compounds was evaluated in rats treated with vehicle for one week and subsequently provided with the test article prior to the behavioural evaluations. The behavioural evaluations were performed at different times (between 30 min to 24 hours).
(§7) Thermal hyperalgesia was tested according to the Hargreaves procedure (Hargreaves et al., 1988) using the plantar test (Ugo Basile, Varese, Italy).
(§8) Briefly, animals were placed in a clear plexiglass box and allowed to acclimatise. A constant intensity radiant heat source was aimed at the midplantar area of the hind paw. The time, in seconds, from initial heat source activation until paw withdrawal was recorded.
Table 2 below details the data produced by the acute administration of the vehicle to the sham animals or administration of vehicle or test article to animals with CCI, 14 days after the injury occurred.

[2] = test system: mechanical allodynia after chronic constriction injury (CCI) to the sciatic nerve; experiment: Acute administration, mechanical allodynia (Dynamic Plantar Aesthesiometer) in CCI rats; assay type: in vivo, rat; conditions: for Withdrawal threshold: CCI rats 14 days after injury, THC 0.42 mg/kg, CBD 10 mg/kg; for mean pain relieving effect of the test article when compared to the vehicle as a percentage, Mechanical Allodynia: mean over the test period
Method: as §1, §2, §3, §4, §5, §6
(§9) Mechanical allodynia was assessed using the Dynamic Plantar Aesthesiometer (Ugo Basile, Varese, Italy). Particularly, animals were placed in a test cage with a wire mesh floor, and the tip of von Frey-type filament was applied to the middle of the plantar surface of the hind paw. The filament exerted an increasing force starting below the threshold of detection and increasing until the animal removed its paw. Withdrawal threshold was expressed as tolerance level in g.
Table 3 below details the data produced by the acute administration of the vehicle to the sham animals or administration of vehicle or test article to animals with CCI, 14 days after the injury occurred.

[3] = test system: thermal hyperalgesia after chronic constriction injury (CCI) to the sciatic nerve; experiment: Repeated administration, thermal hyperalgesia (Hargreaves plantar test) in CCI rats; assay type: in vivo, rat; conditions: for difference between the pain relieving values before and after treatment, Thermal Hyperalgesia: day 14 minus day 7
Method: as §1, §2, §3, §4, §5
(§10) In the repeated administration study the rats received the test compounds or the vehicle orally once a day for seven days, starting from the seventh day after the surgical procedure.
(§11) The animals pain response was monitored (i) before surgery, (ii) on day 7 (before starting the treatment) and (iii) on day 14 (24 hours after the last administration of the test article).
as §7, §8
(§12) Table 4 below details the data produced by the repeated administration of the vehicle to the sham animals or administration of vehicle or test article to animals with CCI. Test article or vehicle was administered 7 days after the chronic constriction injury was applied and was administered once a day for a further seven days.

[4] = test system: mechanical allodynia after chronic constriction injury (CCI) to the sciatic nerve; experiment: Repeated administration, mechanical allodynia (Dynamic Plantar Aesthesiometer) in CCI rats; assay type: in vivo, rat; conditions: for difference between the pain relieving values before and after treatment, Mechanical Allodynia: day 14 minus day 7
Method: as §1, §2, §3, §4, §5, §10, §11, §9
as §12, with “5” for “4”

[5] = test system: neuropathic pain model of chronic constriction injury of the rat sciatic nerve; conditions: purified compound; thermal and mechanical hyperalgesia and mechanical allodynia; cited from earlier work
[6] = test system: patients taking carbamezepine; conditions: cited from earlier work
[7] = day 0 (prior to CCI), baseline of the treatment group
[8] = day 7 after CCI (before drug treatment), baseline of the treatment group
[9] = day 14 after CCI (after 7 days of drug treatment, orally once a day; THC 0.42 mg/kg, CBD 10 mg/kg)
[10] = repeated administration, 7 days

| SMILES | pain relieving effect (in words), thermal hyperalgesia [1] | Withdrawal latency ([1]; 30 min after administration) | Withdrawal latency ([1]; 60 min after administration) | Withdrawal latency ([1]; 90 min after administration) | Withdrawal latency ([1]; 120 min after administration) | Withdrawal latency ([1]; 150 min after administration) | Withdrawal latency ([1]; 180 min after administration) | mean pain relieving effect of the test article when compared to the vehicle as a percentage, Thermal Hyperalgesia [1] | Withdrawal threshold ([2]; 30 min after administration) | Withdrawal threshold ([2]; 60 min after administration) | Withdrawal threshold ([2]; 90 min after administration) | Withdrawal threshold ([2]; 120 min after administration) | Withdrawal threshold ([2]; 150 min after administration) | Withdrawal threshold ([2]; 180 min after administration) | mean pain relieving effect of the test article when compared to the vehicle as a percentage, Mechanical Allodynia [2] | Withdrawal latency [3, 7] | Withdrawal latency [3, 8] | Withdrawal latency [3, 9] | difference between the pain relieving values before and after treatment, Thermal Hyperalgesia ([3]; repeated administration) | Withdrawal threshold [4, 7] | other results |
| --- | --- | --- | --- | --- | --- | --- | --- | --- | --- | --- | --- | --- | --- | --- | --- | --- | --- | --- | --- | --- | --- |
| C=C(C)[C@@H]1CCC(C)=C[C@H]1c1c(O)cc(CCCCC)cc1O [CBD, cannabidiol] | did not produce any pain relieving effects | 5.4 s | 5.4 s | 5.4 s | 5.3 s | 5.4 s | 5.3 s | −4% | 10 g | 10 g | 11 g | 10 g | 10 g | 10 g | −13% | 10.4 s | 5.5 s | 8.7 s | 3.2 s | 34 g | pain relieving effect (in words), mechanical allodynia [2]: did not produce any pain relieving effects; Withdrawal threshold [4, 8]: 15 g; Withdrawal threshold [4, 9]: 19 g; difference between the pain relieving values before and after treatment, Mechanical Allodynia ([4]; repeated administration): 4 g; relief of neuropathic pain (in words) [5]: can partially relieve neuropathic pain |
| CCCCCc1cc(O)c2c(c1)OC(C)(C)[C@@H]1CCC(C)=C[C@@H]21 [THC, delta-9-tetrahydrocannabinol] | increased the withdrawal latency over that of the vehicle treated animals | 11.0 s | 10.2 s | 9.8 s | 6.0 s | 5.0 s | 5.3 s | 47% | 12 g | 9 g | 15 g | 21 g | 13 g | 10 g | 14% | 9.8 s | 5.8 s | 4.8 s | -1.0 s | 31 g | peak withdrawal threshold ([2]; peak after 120 minutes): 20 g; pain relieving effect (in words), thermal hyperalgesia [3, 10]: did not result in any pain relieving effect; Withdrawal threshold [4, 8]: 12 g; Withdrawal threshold [4, 9]: 10 g; pain relieving effect (in words), mechanical allodynia [4, 10]: did not result in any pain relieving effect; difference between the pain relieving values before and after treatment, Mechanical Allodynia ([4]; repeated administration): -2 g |
| NC(=O)N1c2ccccc2C=Cc2ccccc21 [carbamezepine] |  |  |  |  |  |  |  |  |  |  |  |  |  |  |  |  |  |  |  |  | increase in the risk of blood dyscrasias ([6]; post-marketing studies, patients taking carbamezepine): five- to eight-fold increase; patients with a 25% decrease in their white blood cell count ([6]; usually reverses within the first 4 months of therapy): 7% |
